Data taken from ChEMBL document CHEMBL3046726, “Cytotoxic and genotoxic potentials of newly synthesized antiviral aminopyrazoloquinoline derivatives” (Med Chem Res, 2008).

Assays:
MCF7 [1] = experiment: Induction of apoptosis in Homo sapiens (human) MCF7 cells at 10 uM after 72 hr by flow cytometry; type: cell-based; conditions: mcf7, 72 h
MCF7 [2] = experiment: Cell cycle arrest in Homo sapiens (human) MCF7 cells at 10 uM after 72 hr by flow cytometry; type: ADME, cell-based; conditions: mcf7, 72 h
MCF-12A [3] = experiment: Cell cycle arrest in Homo sapiens (human) MCF12A cells assessed as accumulation at G2/M phase at 100 uM after 72 hr by flow cytometry; type: ADME, cell-based
MCF-12A [4] = experiment: Induction of apoptosis in Homo sapiens (human) MCF12A cells at 100 uM after 72 hr by flow cytometry; type: cell-based
MDA-MB-231 [5] = experiment: Cytotoxicity against Homo sapiens (human) MDA-MB-231 cells at 10 uM after 72 hr; type: cell-based; conditions: mda-mb-231, 72 h
MDA-MB-231 [6] = experiment: Cell cycle arrest in Homo sapiens (human) MDA-MB-231 cells assessed as accumulation at G2/M phase at 100 uM after 72 hr by flow cytometry; type: ADME, cell-based; conditions: mda-mb-231, 72 h
MCF-12A [7] = experiment: Induction of apoptosis in Homo sapiens (human) MCF12A cells at 10 uM after 72 hr by flow cytometry; type: cell-based
MCF7 [8] = experiment: Cell cycle arrest in Homo sapiens (human) MCF7 cells assessed as accumulation at G2/M phase at 100 uM after 72 hr by flow cytometry; type: ADME, cell-based; conditions: mcf7, 72 h
MCF-10A [9] = experiment: Induction of apoptosis in Homo sapiens (human) MCF10A cells at 100 uM after 72 hr by flow cytometry; type: cell-based
MDA-MB-231 [10] = experiment: Induction of apoptosis in Homo sapiens (human) MDA-MB-231 cells at 100 uM after 72 hr by flow cytometry; type: cell-based; conditions: mda-mb-231, 72 h
MCF-12A [11] = experiment: Cytotoxicity against Homo sapiens (human) MCF12A cells at 10 uM after 72 hr; type: cell-based
MCF-12A [12] = experiment: Cell cycle arrest in Homo sapiens (human) MCF12A cells at 10 uM after 72 hr by flow cytometry; type: ADME, cell-based
MCF7 [13] = experiment: Induction of apoptosis in Homo sapiens (human) MCF7 cells at 100 uM after 72 hr by flow cytometry; type: cell-based; conditions: mcf7, 72 h
MDA-MB-231 [14] = experiment: Cell cycle arrest in Homo sapiens (human) MDA-MB-231 cells at 10 uM after 72 hr by flow cytometry; type: ADME, cell-based; conditions: mda-mb-231, 72 h
MDA-MB-231 [15] = experiment: Induction of apoptosis in Homo sapiens (human) MDA-MB-231 cells at 10 uM after 72 hr by flow cytometry; type: cell-based; conditions: mda-mb-231, 72 h
MCF7 [16] = experiment: Cytotoxicity against Homo sapiens (human) MCF7 cells at 10 uM after 72 hr; type: cell-based; conditions: mcf7, 72 h
MCF-10A [17] = experiment: Cell cycle arrest in Homo sapiens (human) MCF10A cells assessed as accumulation at G2/M phase at 100 uM after 72 hr by flow cytometry; type: ADME, cell-based
MCF7 [18] = experiment: Cell cycle arrest in Homo sapiens (human) MCF7 cells assessed as accumulation at G2/M phase at 50 uM after 72 hr by flow cytometry; type: ADME, cell-based; conditions: mcf7, 72 h
MDA-MB-231 [19] = experiment: Induction of apoptosis in Homo sapiens (human) MDA-MB-231 cells at 50 uM after 72 hr by flow cytometry; type: cell-based; conditions: mda-mb-231, 72 h
MCF-12A [20] = experiment: Induction of apoptosis in Homo sapiens (human) MCF12A cells at 50 uM after 72 hr by flow cytometry; type: cell-based
MCF-10A [21] = experiment: Induction of apoptosis in Homo sapiens (human) MCF10A cells at 50 uM after 72 hr by flow cytometry; type: cell-based
MCF7 [22] = experiment: Induction of apoptosis in Homo sapiens (human) MCF7 cells at 50 uM after 72 hr by flow cytometry; type: cell-based; conditions: mcf7, 72 h
MCF7 [23] = experiment: Induction of BP-DNA adduct formation in Homo sapiens (human) MCF7 cells at 100 uM after 24 hr by 32P-postlabeling technique relative to control; type: cell-based; conditions: mcf7, 24 h
MCF-12A [24] = experiment: Cell cycle arrest in Homo sapiens (human) MCF12A cells assessed as accumulation at G2/M phase at 50 uM after 72 hr by flow cytometry; type: ADME, cell-based
MCF-10A [25] = experiment: Cell cycle arrest in Homo sapiens (human) MCF10A cells assessed as accumulation at G2/M phase at 50 uM after 72 hr by flow cytometry; type: ADME, cell-based
MDA-MB-231 [26] = experiment: Cell cycle arrest in Homo sapiens (human) MDA-MB-231 cells assessed as accumulation at G2/M phase at 50 uM after 72 hr by flow cytometry; type: ADME, cell-based; conditions: mda-mb-231, 72 h
MCF7 [27] = experiment: Cytotoxicity against Homo sapiens (human) MCF7 cells at 50 uM after 72 hr; type: cell-based; conditions: mcf7, 72 h
MDA-MB-231 [28] = experiment: Cytotoxicity against Homo sapiens (human) MDA-MB-231 cells at 50 uM after 72 hr; type: cell-based; conditions: mda-mb-231, 72 h
MCF-10A [29] = experiment: Cytotoxicity against Homo sapiens (human) MCF10A cells at 50 uM after 72 hr; type: cell-based
MDA-MB-231 [30] = experiment: Genotoxicity in Homo sapiens (human) MDA-MB-231 cells assessed as reduction of BP-DNA adduct formation at 100 uM after 24 hr by 32P-postlabeling technique; type: toxicity, cell-based; design: scale not given: the % may be the effect or the level left; conditions: mda-mb-231, 24 h
MCF7 [31] = experiment: Cytotoxicity against Homo sapiens (human) MCF7 cells at 100 uM after 72 hr; type: cell-based; conditions: mcf7, 72 h
MCF-12A [32] = experiment: Cytotoxicity against Homo sapiens (human) MCF12A cells at 50 uM after 72 hr; type: cell-based
MCF-12A [33] = experiment: Genotoxicity in Homo sapiens (human) MCF12A cells assessed as reduction of BP-DNA adduct formation at 100 uM after 24 hr by 32P-postlabeling technique; type: toxicity, cell-based; design: scale not given: the % may be the effect or the level left
MCF-10A [34] = experiment: Cytotoxicity against Homo sapiens (human) MCF10A cells at 100 uM after 72 hr; type: cell-based
MCF-12A [35] = experiment: Cytotoxicity against Homo sapiens (human) MCF12A cells at 100 uM after 72 hr; type: cell-based
MDA-MB-231 [36] = experiment: Cytotoxicity against Homo sapiens (human) MDA-MB-231 cells at 100 uM after 72 hr; type: cell-based; conditions: mda-mb-231, 72 h

Nc1[nH]nc2nc3ccccc3cc12
Toxic: Activity (MCF-12A [4]) | Activity (MCF-10A [9])
Non-toxic: Activity (MCF7 [1]) | Activity (MCF7 [2]) | Activity (MCF-12A [3]) | Activity (MDA-MB-231 [5]) | Activity (MDA-MB-231 [6]) | Activity (MCF-12A [7]) | Activity (MCF7 [8]) | Activity (MDA-MB-231 [10]) | Activity (MCF-12A [11]) | Activity (MCF-12A [12]) | Activity (MCF7 [13]) | Activity (MDA-MB-231 [14]) | Activity (MDA-MB-231 [15]) | Activity (MCF7 [16]) | Activity (MCF-10A [17])

Cc1ccc2cc3c(N)[nH]nc3nc2c1
Non-toxic: Activity (MCF7 [18]) | Activity (MCF7 [1]) | Activity (MCF7 [2]) | Activity (MCF-12A [3]) | Activity (MDA-MB-231 [19]) | Activity (MDA-MB-231 [5]) | Activity (MCF7 [22]) | Activity (MDA-MB-231 [6]) | Activity (MCF-12A [7]) | Activity (MCF7 [8]) | Activity (MDA-MB-231 [10]) | Activity (MCF-12A [24]) | Activity (MCF-12A [11]) | Activity (MCF-12A [12]) | Activity (MCF-10A [25]) | Activity (MCF7 [13]) | Activity (MDA-MB-231 [14]) | Activity (MDA-MB-231 [15]) | Activity (MDA-MB-231 [26]) | Activity (MCF7 [16]) | Activity (MCF-10A [17])
3.5: fold change (FC) (MCF7 [23])
Toxic: Activity (MCF-12A [20]) | Activity (MCF-12A [4]) | Activity (MCF-10A [21]) | Activity (MCF-10A [9])

COc1ccc2cc3c(N)n[nH]c3nc2c1
2: fold change (FC) (MCF7 [23])
80%: Activity (MDA-MB-231 [10])
90%: Activity (MCF-10A [34]) | Activity (MCF-12A [35])
10%: Activity (MCF7 [22])
30%: Activity (MCF7 [27]) | Activity (MDA-MB-231 [28]) | Activity (MCF-12A [20])
40%: Activity (MCF-12A [33])
Non-toxic: Activity (MCF7 [1]) | Activity (MCF7 [2]) | Activity (MDA-MB-231 [5]) | Activity (MCF-12A [7]) | Activity (MCF-12A [11]) | Activity (MCF-12A [12]) | Activity (MDA-MB-231 [14]) | Activity (MDA-MB-231 [15]) | Activity (MCF7 [16])
35%: Activity (MDA-MB-231 [26])
15%: Activity (MCF7 [13])
5%: Activity (MCF-10A [21])
50%: Activity (MCF7 [31])
> 60%: Activity (MDA-MB-231 [30])
20%: Activity (MCF-10A [29]) | Activity (MCF-12A [32]) | Activity (MCF-12A [24]) | Activity (MCF-10A [25])

Nc1nc2c(ncn2COCCO)c(=O)[nH]1 [ACYCLOVIR]
Non-toxic: Activity (MCF7 [18]) | Activity (MCF7 [27]) | Activity (MCF7 [1]) | Activity (MCF7 [2]) | Activity (MDA-MB-231 [28]) | Activity (MCF-12A [3]) | Activity (MDA-MB-231 [19]) | Activity (MCF-12A [20]) | Activity (MCF-10A [29]) | Activity (MCF-12A [4]) | Activity (MCF7 [31]) | Activity (MCF-12A [32]) | Activity (MCF-10A [21]) | Activity (MDA-MB-231 [5]) | Activity (MCF7 [22]) | Activity (MDA-MB-231 [6]) | Activity (MCF-12A [7]) | Activity (MCF7 [8]) | Activity (MCF-10A [9]) | Activity (MCF-10A [34]) | Activity (MDA-MB-231 [10]) | Activity (MCF-12A [24]) | Activity (MDA-MB-231 [36]) | Activity (MCF-12A [11]) | Activity (MCF-12A [12]) | Activity (MCF-10A [25]) | Activity (MCF7 [13]) | Activity (MCF-12A [35]) | Activity (MDA-MB-231 [14]) | Activity (MDA-MB-231 [15]) | Activity (MDA-MB-231 [26]) | Activity (MCF7 [16]) | Activity (MCF-10A [17])
